Patent US20160138077A1, “MONITORING AND ASSESSING DEACETYLASE ENZYME ACTIVITY” (THE GENERAL HOSPITAL CORPORATION, priority 2013, published 2016)

Experiments:
[1] = target: T1, HDAC1 (Homo sapiens, UniProt Q13547); assay: LCMS characterization of enzymatic deacetylation by HDAC1; type: biochemical; conditions: 5 μM probe, 12 hours at 37° C.
T1 construct: purchased Cayman Chemicals
Procedure: The enzymatic cleavage of HP-1 and HP-2 was analyzed by performing LCMS assays with HeLa nuclear extract (AnaSpec), HeLa whole cell lysate (Santa Cruz Inc.), and the following purified HDAC isoforms: 1, 2, 3, 6 and 8 (HDAC1, 3 and 8 from Cayman Chemicals and HDAC2 and 6 provided by Dr. Stephen Haggarty). Solutions containing (i) vehicle with DMSO in HDAC buffer, (ii) 5 μM probe in HDAC buffer, (iii) 5 μM probe and HDAC enzyme/HeLa nuclear extract/HeLa whole cell lysate in HDAC buffer, or (iv) 5 μM probe and HDAC enzyme/HeLa nuclear extract/HeLa whole cell lysate pre-incubated with 10 μM SAHA (Provided by Dr. Stephen Haggarty) in HDAC buffer were incubated for 12 hours at 37° C. Following incubation, a 20 μL aliquot of supernatant from each sample was analyzed by LCMS. […] For HP-1, the (M+H)^+ ion for the corresponding aldehyde (8, DHP-1) was detected, which formed following reaction of the initial imine deacetylation product with water. […] The peak area for each detected compound was measured to determine the % deacetylation of each probe. All assay samples were analyzed in triplicate. […]
LCMS characterization of HDAC enzymatic action on HP-1 and HP-2. […] Following incubation, an aliquot of supernatant from each sample was analyzed by LCMS. […] The peak area for each detected compound was measured to determine the % deacetylation of each probe (full experimental details in Example 1).

[2] = tested on: HeLa cells; assay: Confocal fluorescence imaging of HDAC activity in HeLa cells; type: cell-based; conditions: 5 μM probe, 2 hours
Procedure: Imaging HDAC activity in HeLa cells with HP-1 and 2. An acid-washed, poly-lysine-treated sterile glass cover slip was added to each well of 6-well plate, and HeLa cells were plated at a seeding density of ˜2.5×10^5 cells/mL in 2 mL of growth medium. After 24 hours, the cells reached 80-85% confluence. For all experiments, solutions of HP-1 and HP-2 (200 mM each) were prepared in DMSO and diluted in HDAC buffer to a final concentration of 100 μM. SAHA solutions (100 mM) were prepared in DMSO and diluted in HDAC buffer to make a 100 μM solution. All solutions were prepared immediately prior to application to the cells. […]
Confocal fluorescence image acquisition and analysis. Confocal fluorescence imaging was performed with a Zeiss laser scanning microscope 710 with a 63× objective lens and Zen 2009 software (Carl Zeiss). […] The mean fluorescence intensity of 10 cells per coverslip was measured using ImageJ software. […] The mean background signal was also measured and subtracted from the mean fluorescence signal within the cells. Mean fluorescence intensities and standard deviations were plotted in Microsoft Excel.
Imaging HDAC activity in HeLa cells with HP-1 and 2. […] Cover slips were mounted on a drop of Gel Mount (anti-fade with DAPI nuclear stain) and analyzed by confocal imaging.
Confocal fluorescence imaging. […]

T1 sequence (Q13547 whole entry): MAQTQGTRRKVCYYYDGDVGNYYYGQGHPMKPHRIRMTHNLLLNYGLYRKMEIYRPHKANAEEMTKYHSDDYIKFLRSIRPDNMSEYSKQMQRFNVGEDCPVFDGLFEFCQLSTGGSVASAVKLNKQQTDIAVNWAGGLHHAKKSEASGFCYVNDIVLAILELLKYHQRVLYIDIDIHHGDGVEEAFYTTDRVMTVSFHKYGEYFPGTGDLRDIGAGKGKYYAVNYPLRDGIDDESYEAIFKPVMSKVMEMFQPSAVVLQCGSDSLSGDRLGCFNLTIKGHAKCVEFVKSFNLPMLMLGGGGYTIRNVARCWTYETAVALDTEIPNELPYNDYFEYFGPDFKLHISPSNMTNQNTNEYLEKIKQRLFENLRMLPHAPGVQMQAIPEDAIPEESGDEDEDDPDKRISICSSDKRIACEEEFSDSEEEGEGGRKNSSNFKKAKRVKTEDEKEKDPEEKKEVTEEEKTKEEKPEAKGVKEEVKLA

CC(=O)NC=CCCCCNC(=O)CCCCCNc1ccc([N+](=O)[O-])c2nonc12 [HP-1] was tested, and the “% HP-1 to DHP-1” value ([1]; HDAC1, +SAHA (10 μM pre-incubated)) was 0%, the “% HP-1 to DHP-1” value ([1]; HDAC1, −SAHA, maximum detected conversion, 1.5:1 trans:cis mixture) was 15% and the “intracellular NBD fluorescence” value ([2]; 10 μM SAHA added 15 min prior) was “reduces the level of fluorescence”. For the same compound, the “intracellular NBD fluorescence” value ([2]; absence of SAHA) was “robust intracellular fluorescent signal”.
